# Activity calls are given as the source filed them. The rule behind the calls is not given here.
# Tests used:
# [1] = Plasma concentration in Swiss CD1 mouse at 10 mg/kg, ip measured upto 4 hrs by LC-MS analysis; type: ADME, organism-based
# [2] = Solubility of compound in PBS buffer pH 7.4 with 1% DMSO measured after 1 and 24 hrs; type: physicochemical; conditions: PBS buffer with 1% DMSO
# [3] = Plasma concentration in Swiss CD1 mouse at 1 mg/kg, ip measured upto 3 hrs by LC-MS analysis; type: ADME, organism-based
# [4] = Tmax in Swiss CD1 mouse at 1 mg/kg, ip measured upto 7 hrs by LC-MS analysis; type: ADME, organism-based; conditions: in vivo
# [5] = biological target: Oxysterols receptor LXR-alpha (Homo sapiens) (UniProt Q13133); assay: Antagonist activity at recombinant human pFA-CMV fused LXRalpha LBD transfected in HEK293T cells assessed as reduction in T0901317-induced LXRalpha activation at 1 uM incubated for 12 to 14 hrs by dual glo luciferase reporter gene assay
# Oxysterols receptor LXR-alpha (Homo sapiens), sequence (Q13133 whole entry, looked up, the tested form may be a part): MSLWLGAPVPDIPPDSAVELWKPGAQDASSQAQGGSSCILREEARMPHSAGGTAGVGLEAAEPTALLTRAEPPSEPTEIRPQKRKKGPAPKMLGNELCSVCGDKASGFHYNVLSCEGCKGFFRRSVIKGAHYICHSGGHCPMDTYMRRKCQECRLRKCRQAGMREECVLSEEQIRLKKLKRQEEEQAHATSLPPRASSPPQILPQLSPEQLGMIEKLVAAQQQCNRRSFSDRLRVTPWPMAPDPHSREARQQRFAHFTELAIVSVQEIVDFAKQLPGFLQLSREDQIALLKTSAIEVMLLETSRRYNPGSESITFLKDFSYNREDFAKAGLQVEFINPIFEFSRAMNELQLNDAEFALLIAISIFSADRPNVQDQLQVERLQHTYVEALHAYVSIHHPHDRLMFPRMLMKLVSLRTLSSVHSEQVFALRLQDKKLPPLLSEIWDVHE
# [6] = biological target: T1, Peroxisome proliferator-activated receptor delta (Homo sapiens) (UniProt Q03181); assay: Agonist activity at recombinant human pFA-CMV fused PPARdelta LBD transfected in HEK293T cells assessed as PPARdelta activation at 1 uM incubated for 12 to 14 hrs by dual glo luciferase reporter gene assay; type: cell-based
# T1 sequence (whole entry): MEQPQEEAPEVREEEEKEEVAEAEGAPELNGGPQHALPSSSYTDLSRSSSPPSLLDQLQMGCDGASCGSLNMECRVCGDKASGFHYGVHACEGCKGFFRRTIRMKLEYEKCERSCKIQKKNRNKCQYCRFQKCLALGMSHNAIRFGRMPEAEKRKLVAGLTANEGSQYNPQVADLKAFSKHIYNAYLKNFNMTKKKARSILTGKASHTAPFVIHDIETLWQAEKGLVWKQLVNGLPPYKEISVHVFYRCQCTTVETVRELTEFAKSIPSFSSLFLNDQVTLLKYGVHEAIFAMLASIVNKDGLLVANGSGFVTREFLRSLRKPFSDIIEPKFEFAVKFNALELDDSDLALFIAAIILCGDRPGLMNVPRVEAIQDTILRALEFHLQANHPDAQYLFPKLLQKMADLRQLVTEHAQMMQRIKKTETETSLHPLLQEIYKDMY
# [7] = biological target: T2, Peroxisome proliferator-activated receptor gamma (Homo sapiens, UniProt P37231); assay: Antagonist actvity in pFA-GAL4-DBD fused PPARgamma LBD (unknown origin) transfected in HEK293T cells assessed as inhibition of rosiglitazone-induced PPARgamma transactivation incubated for 24 hrs by luciferase reporter gene assay; type: cell-based; conditions: read-out: IC50
# T2 sequence (P37231 whole entry): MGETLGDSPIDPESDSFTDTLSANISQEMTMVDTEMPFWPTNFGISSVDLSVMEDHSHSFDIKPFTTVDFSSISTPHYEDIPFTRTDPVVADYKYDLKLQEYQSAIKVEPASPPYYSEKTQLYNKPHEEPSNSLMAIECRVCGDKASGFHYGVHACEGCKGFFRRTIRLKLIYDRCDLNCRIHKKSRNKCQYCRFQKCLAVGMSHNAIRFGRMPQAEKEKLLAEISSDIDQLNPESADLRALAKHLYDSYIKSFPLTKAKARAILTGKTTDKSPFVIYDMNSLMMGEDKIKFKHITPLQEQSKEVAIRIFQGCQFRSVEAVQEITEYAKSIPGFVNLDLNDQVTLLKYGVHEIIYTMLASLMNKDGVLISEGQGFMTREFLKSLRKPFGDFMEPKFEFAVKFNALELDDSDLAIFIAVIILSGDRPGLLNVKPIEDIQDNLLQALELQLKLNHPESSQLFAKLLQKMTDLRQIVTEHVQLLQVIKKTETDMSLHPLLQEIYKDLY
# [8] = Cmax in Swiss CD1 mouse at 10 mg/kg, ip measured upto 7 hrs by LC-MS analysis; type: ADME, organism-based; design: dose 10 mg/kg, route intraperitoneal; conditions: in vivo
# [9] = biological target: T3, Nuclear receptor subfamily 1 group I member 3 (Homo sapiens, UniProt Q14994); assay: Antagonist activity at recombinant human pFA-CMV fused CAR LBD transfected in HEK293T cells assessed as reduction in CITCO-induced CAR activation at 1 uM incubated for 12 to 14 hrs by dual glo luciferase reporter gene assay; type: cell-based
# T3 sequence (Q14994 whole entry): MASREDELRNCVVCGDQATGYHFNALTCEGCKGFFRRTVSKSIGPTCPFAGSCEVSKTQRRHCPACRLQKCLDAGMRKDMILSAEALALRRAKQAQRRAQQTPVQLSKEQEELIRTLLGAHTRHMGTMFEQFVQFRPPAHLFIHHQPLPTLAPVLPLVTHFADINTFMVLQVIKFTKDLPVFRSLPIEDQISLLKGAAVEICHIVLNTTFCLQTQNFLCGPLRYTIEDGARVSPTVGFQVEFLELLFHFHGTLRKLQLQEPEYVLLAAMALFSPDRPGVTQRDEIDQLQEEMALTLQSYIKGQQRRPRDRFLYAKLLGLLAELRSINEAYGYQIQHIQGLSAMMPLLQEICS
# [10] = Cmax in Swiss CD1 mouse at 1 mg/kg, ip measured upto 7 hrs by LC-MS analysis; type: ADME, organism-based; design: dose 1 mg/kg, route intraperitoneal; conditions: in vivo
# [11] = biological target: T3, Nuclear receptor subfamily 1 group I member 3; assay: Agonist activity at recombinant human pFA-CMV fused CAR LBD transfected in HEK293T cells assessed as CAR activation at 1 uM incubated for 12 to 14 hrs by dual glo luciferase reporter gene assay; type: cell-based
# [12] = biological target: T4, Retinoic acid receptor alpha (Homo sapiens) (UniProt P10276); assay: Antagonist activity at recombinant human pFA-CMV fused RARalpha LBD transfected in HEK293T cells assessed as reduction in tretinoin-induced RARalpha activation at 1 uM incubated for 12 to 14 hrs by dual glo luciferase reporter gene assay; type: cell-based
# T4 sequence (whole entry): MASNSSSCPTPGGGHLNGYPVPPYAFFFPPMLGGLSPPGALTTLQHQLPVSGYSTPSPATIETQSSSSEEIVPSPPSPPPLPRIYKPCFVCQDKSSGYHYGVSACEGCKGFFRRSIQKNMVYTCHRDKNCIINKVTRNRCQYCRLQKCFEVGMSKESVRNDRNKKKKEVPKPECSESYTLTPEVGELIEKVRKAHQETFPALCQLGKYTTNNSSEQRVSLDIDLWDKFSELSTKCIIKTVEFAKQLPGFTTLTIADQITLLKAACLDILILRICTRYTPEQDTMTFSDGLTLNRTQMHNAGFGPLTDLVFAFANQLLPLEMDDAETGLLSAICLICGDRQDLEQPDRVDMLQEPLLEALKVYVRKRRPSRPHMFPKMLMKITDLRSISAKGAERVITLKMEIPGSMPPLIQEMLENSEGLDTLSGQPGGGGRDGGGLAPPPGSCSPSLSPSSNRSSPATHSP
Structure (SMILES),concentration at 4 h [1] [nM],solubility at 24 h [2] [µM],concentration at 3 h [3] [nM],Tmax [4] [h],Activity [5],Activity [6],IC50 [7] [µM],Cmax [8] [nM],Activity [9],Cmax [10] [nM],Activity [11],Activity [12]
CCC/C(=C\c1cc(OCc2ccc3nc(C(F)(F)F)cc(OC)c3c2)ccc1OCCN1CCN(C)CC1)C(=O)O,59,200 to 250,9.5,1,inactive,inactive,4.7,446,Not Active,74,Not Active,inactive
CCC/C(=C\c1cc(OCc2ccc3nc(C(F)(F)F)cc(OC)c3c2)ccc1OCC1CCN(C)CC1)C(=O)O,115,125 to 150,14,1,inactive,inactive,2.5,380,Not Active,60,Active,inactive

# Source: ChEMBL document CHEMBL4364346, “Structure optimization of a new class of PPARγ antagonists” (Bioorg Med Chem, 2019)
